How the values were obtained:
hTLR7 = target: T1, hTLR7 (Homo sapiens, UniProt Q9NYK1); assay: Agonistic effect on hTLR7, HEK-hTLR7-NF-κB-Luciferase reporter cells; assay type: cell-based; details: 16 hours
T1 construct: host or cells: HEK-hTLR7-NF-κB-Luciferase cells
T1 sequence (Q9NYK1 27-1049): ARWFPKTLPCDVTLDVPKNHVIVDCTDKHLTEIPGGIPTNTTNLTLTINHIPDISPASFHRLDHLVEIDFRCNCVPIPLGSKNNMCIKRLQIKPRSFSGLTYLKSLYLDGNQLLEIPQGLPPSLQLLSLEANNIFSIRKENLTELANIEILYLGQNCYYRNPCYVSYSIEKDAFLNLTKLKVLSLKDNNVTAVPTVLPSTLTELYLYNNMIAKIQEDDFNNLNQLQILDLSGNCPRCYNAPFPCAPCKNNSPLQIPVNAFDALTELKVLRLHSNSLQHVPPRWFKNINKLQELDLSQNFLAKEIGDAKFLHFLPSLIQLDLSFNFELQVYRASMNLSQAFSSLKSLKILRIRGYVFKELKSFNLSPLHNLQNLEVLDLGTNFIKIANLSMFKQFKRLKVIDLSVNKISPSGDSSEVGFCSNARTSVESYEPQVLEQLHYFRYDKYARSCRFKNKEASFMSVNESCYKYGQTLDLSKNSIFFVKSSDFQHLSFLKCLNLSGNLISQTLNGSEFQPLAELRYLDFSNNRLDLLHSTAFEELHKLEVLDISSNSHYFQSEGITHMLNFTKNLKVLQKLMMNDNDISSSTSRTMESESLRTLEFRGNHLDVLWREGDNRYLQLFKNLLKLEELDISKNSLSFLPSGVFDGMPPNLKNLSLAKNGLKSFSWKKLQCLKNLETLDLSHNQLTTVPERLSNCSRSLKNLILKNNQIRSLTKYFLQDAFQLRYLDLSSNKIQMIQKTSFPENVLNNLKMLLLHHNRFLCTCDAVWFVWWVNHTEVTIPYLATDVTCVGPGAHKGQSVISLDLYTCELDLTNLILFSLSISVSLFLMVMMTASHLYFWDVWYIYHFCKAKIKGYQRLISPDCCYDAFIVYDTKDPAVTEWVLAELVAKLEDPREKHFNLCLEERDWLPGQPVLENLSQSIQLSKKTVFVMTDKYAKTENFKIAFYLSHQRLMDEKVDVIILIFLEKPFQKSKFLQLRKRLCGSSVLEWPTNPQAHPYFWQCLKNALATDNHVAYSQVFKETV
Text: Experimental Example 3: Agonistic Effect of the Compound of the Invention on hTLR7
In this test, the luciferase in HEK-hTLR7-NF-κB-reporter cells was detected to test the activating effect of the compound of the invention on TLR7 signaling pathway, so as to evaluate the specificity of the agonistic effect of the compound on NLRP3 pathway.
Reagents: DMEM (High glucose); FBS (fetal bovine serum) (Gibco); Bright-Glo™ Luciferase detection kit (Promega)
Cells: HEK-hTLR7-NF-κB-Luciferase gene cells (human TLR7 NF-κB-luciferase reporter gene cells) (Nanjing Cobioer)
1) The HEK-hTLR7-NF-κB-Luciferase cells in a logarithmic growth phase were trypsinized and resuspended in the medium to a concentration of 2×10^6 cells/mL. 50 μL/well of the cell resuspension was added to a 96-well plate such that the number of cells in each well was […]. An appropriate amount of 10 mM DMSO solution of the compound to be tested was taken and diluted to a concentration of 2× test concentration with the medium. 50 μL/well was added to the cells in the 96-well plate, and the 96-well plate was incubated in an incubator at 37° C. and 5% CO2 for 16 hours. The medium was DMEM (High glucose) containing 10% FBS.
2) After the cell incubation, 100 μL/well of Bright-Glo™ Luciferase detection reagent was added, and the mixture was incubated at room temperature for 5 minutes. Relative luciferase activity unit (RLU) was read using a microplate reader.
3) The EC50 of effect of the tested compound to stimulate hTLR7 was fitted by the GraphPad software log(agonist) vs. response—Variable slope four-parameter method.

hNLRP3 inflammasome = target: T2, hNLRP3 inflammasome (Homo sapiens, UniProt Q96P20); assay: Agonistic effect on the expression of IL-1β in THP-1 cells after PMA-induced differentiation (HTRF); assay type: cell-based; details: IL-1β level, PMA-differentiated THP-1 cells, 6 hours
T2 construct: endogenous in cells; host or cells: THP-1 cells, PMA-differentiated
T2 sequence (Q96P20 whole entry): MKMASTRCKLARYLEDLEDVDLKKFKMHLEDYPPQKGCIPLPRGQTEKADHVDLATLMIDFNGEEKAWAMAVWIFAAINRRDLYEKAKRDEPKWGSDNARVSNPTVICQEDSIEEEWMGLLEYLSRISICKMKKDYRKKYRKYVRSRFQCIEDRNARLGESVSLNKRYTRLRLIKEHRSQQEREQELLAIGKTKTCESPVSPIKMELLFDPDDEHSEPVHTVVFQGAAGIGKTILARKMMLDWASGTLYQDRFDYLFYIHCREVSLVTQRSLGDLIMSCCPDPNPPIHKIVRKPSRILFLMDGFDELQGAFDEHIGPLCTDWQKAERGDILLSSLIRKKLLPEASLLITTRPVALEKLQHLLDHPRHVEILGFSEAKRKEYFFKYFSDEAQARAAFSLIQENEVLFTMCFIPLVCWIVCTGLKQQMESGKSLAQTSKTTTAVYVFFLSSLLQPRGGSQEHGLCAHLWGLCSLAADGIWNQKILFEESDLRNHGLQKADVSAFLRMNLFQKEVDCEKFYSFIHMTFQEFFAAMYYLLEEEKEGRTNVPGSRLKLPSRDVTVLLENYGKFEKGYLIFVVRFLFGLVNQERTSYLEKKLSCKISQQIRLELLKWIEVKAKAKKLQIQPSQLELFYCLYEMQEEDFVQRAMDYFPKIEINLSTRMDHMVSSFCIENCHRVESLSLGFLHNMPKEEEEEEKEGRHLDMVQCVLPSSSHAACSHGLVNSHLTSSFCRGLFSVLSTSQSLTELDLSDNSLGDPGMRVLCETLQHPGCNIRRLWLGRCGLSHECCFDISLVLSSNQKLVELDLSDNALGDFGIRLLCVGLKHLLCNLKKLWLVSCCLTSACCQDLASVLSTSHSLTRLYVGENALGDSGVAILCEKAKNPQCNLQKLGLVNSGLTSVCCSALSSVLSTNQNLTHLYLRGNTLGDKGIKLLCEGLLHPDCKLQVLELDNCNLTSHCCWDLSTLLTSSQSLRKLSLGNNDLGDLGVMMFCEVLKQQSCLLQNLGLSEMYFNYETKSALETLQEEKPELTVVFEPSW
In short: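 THP-1 cells differentiated with 1 μM PMA for 24 h, then replated at 1×10^5 cells/well in RPMI 1640 with 2% FBS. Compounds added for 6 h at 37 °C, 5% CO2. Supernatant IL-1β measured by HTRF; EC50 from four-parameter variable-slope fit.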

Compound	EC50 (hTLR7) [nM]	EC50 (hNLRP3 inflammasome) [µM]
CO[C@H](C)CNc1cc(N)nc2cc(-c3ccn[nH]3)sc12 [Compound 101, (R)—N^7-(2-methoxypropyl)-2-(1H-pyrazol-5-yl)thieno[3,2-b]pyridine-5,7-diamine]	> 100000	0.03
CN(CCCNc1cc(N)nc2cc(-c3ccn[nH]3)sc12)C(=O)C1CC1 [Compound 76, N-(3-((5-amino-2-(1H-pyrazol-5-yl)thieno[3,2-b]pyridin-7-yl)amino)propyl)-N-methylcyclopropane formamide]	> 100000	0.27
Nc1cc(NCCCO)c2sc(-c3ccncc3)cc2n1 [Compound 90, 3-((5-amino-2-(pyridin-4-yl)thieno[3,2-b]pyridin-7-yl)amino)-1-propanol]	> 100000	6.03
C[C@@H]1CN(c2cc(N)nc3cc(-c4ccn[nH]4)sc23)C[C@H](C)O1 [Compound 169]	> 100000	0.01
Cc1cccc(-c2cc3nc(N)cc(NCCCO)c3s2)n1 [Compound 91, 3-((5-amino-2-(6-methylpyridin-2-yl)thieno[3,2-b]pyridin-7-yl)amino)-1-propanol]	> 100000	0.11
N#CC1(CNc2cc(N)nc3cc(-c4ccn[nH]4)sc23)CC1 [Compound 119]	> 100000	0.01
Nc1cc(NCCNC(=O)C2CC2)c2sc(-c3ccn[nH]3)cc2n1 [Compound 64]	> 100000	0.05
Nc1cc(NCCN2CCOCC2)c2sc(-c3ccn[nH]3)cc2n1 [Compound 55, N^7-(2-morpholinoethyl)-2-(1H-pyrazol-5-yl)thieno[3,2-b]pyridine-5,7-diamine]	> 100000	0.44
CN1CCC(Nc2cc(N)nc3cc(-c4ccn[nH]4)sc23)CC1 [Compound 89, N^7-(1-methylpiperidin-4-yl)-2-(1H-pyrazol-5-yl)thieno[3,2-b]pyridine-5,7-diamine]	> 100000	0.16
CN1CC[C@H](Nc2cc(N)nc3cc(-c4ccn[nH]4)sc23)C1 [Compound 51, (S)—N^7-(1-methylpyrrolidin-3-yl)-2-(1H-pyrazol-5-yl)thieno[3,2-b]pyridine-5,7-diamine]	> 100000	0.33
C[C@@H]1CN(CCNc2cc(N)nc3cc(-c4ccn[nH]4)sc23)C[C@H](C)O1 [Compound 117, N^7-(2-((2S,6R)-2,6-dimethylmorpholino)ethyl)-2-(1H-pyrazol-5-yl)thieno[3,2-b]pyridine-5,7-diamine]	> 100000	0.27
C[C@H]1CN(c2cc(N)nc3cc(-c4ccn[nH]4)sc23)C[C@H](C)O1 [Compound 168]	> 100000	0.01
CN1CCN(CCNc2cc(N)nc3cc(-c4ccn[nH]4)sc23)CC1 [Compound 57, N^7-(2-(4-methylpiperazin-1-yl)ethyl)-2-(1H-pyrazol-5-yl)thieno[3,2-b]pyridine-5,7-diamine]	> 100000	0.57
CC(=O)N1CCC(Nc2cc(N)nc3cc(-c4ccn[nH]4)sc23)CC1 [Compound 92, 1-(4-((5-amino-2-(1H-pyrazol-5-yl)thieno[3,2-b]pyridin-7-yl)amino)piperidin-1-yl)ethanone]	> 100000	1.12
CC(=O)N(C)CCNc1cc(N)nc2cc(-c3ccn[nH]3)sc12 [Compound 73, N-(2-((5-amino-2-(1H-pyrazol-5-yl)thieno[3,2-b]pyridin-7-yl)amino)ethyl)-N-methylethanamide]	> 100000	0.18
Nc1cc(N2CC3CC(C2)N3)c2sc(-c3ccn[nH]3)cc2n1 [Compound 176]	> 100000	0.23
Nc1cc(NCC(F)F)c2sc(-c3ccn[nH]3)cc2n1 [Compound 116, N^7-(2,2-difluoroethyl)-2-(1H-pyrazol-5-yl)thieno[3,2-b]pyridine-5,7-diamine]	> 100000	0.03
Cn1cc(CNc2cc(N)nc3cc(-c4ccn[nH]4)sc23)cn1 [Compound 106, N^7-(1-methyl-1H-pyrazol-4-yl)methyl-2-(1H-pyrazol-5-yl)thieno[3,2-b]pyridine-5,7-diamine]	> 100000	0.04
CC1(O)CCN(CCNc2cc(N)nc3cc(-c4ccn[nH]4)sc23)CC1 [Compound 98, 1-(2-((5-amino-2-(1H-pyrazol-5-yl)thieno[3,2-b]pyridin-7-yl)amino)ethyl)-4-methylpiperidine-4-ol]	> 100000	0.35
Nc1cc(NCCCNC(=O)C2CC2)c2sc(-c3ccn[nH]3)cc2n1 [Compound 58]	> 100000	0.26

— patent publication US20220056043A1, “NITROGEN-CONTAINING FUSED CYCLIC COMPOUND, PREPARATION METHOD THEREFOR AND USE THEREOF” (SICHUAN KELUN-BIOTECH BIOPHARMACEUTICAL CO., LTD., priority 2019, published 2022)
